Assay results taken from PubChem BioAssay (NCI).
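Protocol summary: plate cells (96-well), add compound at 5 concentrations, incubate 48 h, interpolate endpoints linearly. GI50: concentration for 50% inhibition of growth. TGI: concentration producing complete growth inhibition.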

Assays:
Assay in all cases: NCI anticancer screen, dose series, 48 h
[1] = test system: ACHN renal
[2] = test system: HCT-15 colon
[3] = test system: A549 NSCLC
[4] = test system: RPMI-8226 leukemia
[5] = test system: SK-MEL-5 melanoma
[6] = test system: SF-295 CNS
[7] = test system: HT29 colon
[8] = test system: OVCAR-5 ovarian
[9] = test system: MCF7 breast
[10] = test system: T-47D breast

C=C1C[C@]23CCC4C(C)(C)C(=O)CC[C@]4(C)C2C[C@H]1C(O)C3=O (stereo not given in full)
TGI [1]: > 75 µM
TGI [2]: > 75 µM
TGI [3]: > 75 µM
TGI [4]: > 75 µM
TGI [5]: > 75 µM
TGI [6]: > 75 µM

N.N.N.N.[Cl-].[Co+3].[N-]=[N+]=[N-].[N-]=[N+]=[N-]
GI50 [1]: 50.5 µM
TGI [1]: > 100 µM
GI50 [7]: > 100 µM
TGI [7]: > 100 µM
GI50 [2]: > 100 µM
TGI [2]: > 100 µM
GI50 [3]: > 100 µM
TGI [3]: > 100 µM
GI50 [4]: > 100 µM
TGI [4]: > 100 µM
GI50 [5]: > 100 µM
TGI [5]: > 100 µM
GI50 [8]: > 100 µM
TGI [8]: > 100 µM
GI50 [6]: > 100 µM
TGI [6]: > 100 µM

CCCCOC(=O)NC(=O)c1cn(CCCOC(=O)NCCCCCCNC(=O)OCCCn2cc(C(=O)NC(=O)OCCCC)c(=O)[nH]c2=O)c(=O)[nH]c1=O
TGI [1]: > 100 µM
TGI [7]: > 100 µM
TGI [2]: > 100 µM
TGI [3]: > 100 µM
TGI [4]: > 100 µM
TGI [5]: > 100 µM
TGI [8]: > 100 µM
TGI [6]: > 100 µM

Cc1cc(S(=O)(=O)N/N=C(\Sc2cc(Cl)c(C)cc2S(N)(=O)=O)c2ccc(Cl)cc2)c(Cl)cc1Cl
GI50 [1]: 25.6 µM
TGI [1]: 73.9 µM
GI50 [2]: > 100 µM
TGI [2]: > 100 µM
GI50 [9]: 42.8 µM
TGI [9]: > 100 µM
GI50 [3]: 36.6 µM
TGI [3]: > 100 µM
GI50 [4]: 27.3 µM
TGI [4]: 86.4 µM
GI50 [5]: > 100 µM
TGI [5]: > 100 µM
GI50 [8]: > 100 µM
TGI [8]: > 100 µM
GI50 [6]: > 100 µM
TGI [6]: > 100 µM

C[C@]12CC[C@H](O)C[C@H]1CC[C@@H]1[C@@H]2CC[C@]2(C)[C@@H](C3=CC(=O)OC3)CC[C@]12O
TGI [1]: 0.825 µM
TGI [7]: 1.6 µM
TGI [2]: 0.316 µM
TGI [10]: 0.858 µM
TGI [3]: 0.0456 µM
TGI [4]: 0.558 µM
TGI [5]: 0.205 µM
TGI [8]: 1.93 µM
GI50 [6]: 0.0292 µM
TGI [6]: 0.0959 µM

CN(C)C(=S)/N=c1\ss/c(=N\C(=S)N(C)C)n1-c1ccc(Cl)c(Cl)c1
TGI [1]: > 100 µM
TGI [7]: > 100 µM
TGI [2]: > 100 µM
TGI [3]: > 100 µM
TGI [4]: > 100 µM
TGI [5]: > 100 µM
TGI [8]: > 100 µM
TGI [6]: > 100 µM

O=c1[nH]cnc2cccc(Cl)c12
TGI [1]: > 100 µM
TGI [7]: > 100 µM
TGI [2]: > 100 µM
TGI [9]: > 100 µM
TGI [10]: > 100 µM
TGI [3]: > 100 µM
TGI [5]: > 100 µM
TGI [8]: > 100 µM
TGI [6]: > 100 µM

COc1ccc(C2c3cc(OC)c(OC)cc3C(Cc3ccc([N+](=O)[O-])cc3)C2c2ccc([N+](=O)[O-])cc2)cc1OC (stereo not given)
TGI [1]: > 100 µM
TGI [7]: > 100 µM
TGI [2]: > 100 µM
TGI [3]: > 100 µM
TGI [4]: > 100 µM
TGI [5]: > 100 µM
TGI [8]: > 100 µM
TGI [6]: > 100 µM

COC(=O)OCC1OC(N2C(=O)NC(=O)C(Br)C2N=[N+]=[N-])CC1OC(=O)OC (stereo not given)
TGI [1]: > 100 µM
TGI [7]: > 100 µM
TGI [2]: > 100 µM
TGI [3]: > 100 µM
TGI [4]: > 100 µM
TGI [5]: > 100 µM
TGI [8]: > 100 µM
TGI [6]: > 100 µM

O=c1[nH]c2cc(Cl)ccc2nc1/C(=N\O)C(O)c1ccc(Cl)cc1Cl (stereo not given)
TGI [1]: > 100 µM
TGI [7]: > 100 µM
TGI [2]: > 100 µM
TGI [3]: > 100 µM
TGI [4]: > 100 µM
TGI [5]: > 100 µM
TGI [8]: > 100 µM
TGI [6]: > 100 µM

COc1ccc(OC)c2c(/C=C/c3ccc(N(C)C)cc3)ccnc12
TGI [1]: > 10 µM
TGI [7]: > 10 µM
TGI [2]: > 10 µM
TGI [9]: > 10 µM
TGI [10]: > 10 µM
TGI [3]: > 10 µM
TGI [5]: > 10 µM
TGI [8]: > 10 µM
TGI [6]: > 10 µM

COc1cc(C)c2c(c1C)OC(=O)c1c(C)c(Cl)c(O)c(C=O)c1O2
TGI [1]: 35.9 µM
TGI [7]: 70.3 µM
TGI [3]: 44.3 µM
TGI [4]: 33.4 µM
TGI [5]: > 100 µM
TGI [8]: 81.8 µM

CN[C@@H](C)[C@H](NC)c1ccccc1
TGI [7]: > 100 µM
TGI [2]: > 100 µM
TGI [3]: > 100 µM
TGI [4]: > 100 µM
TGI [5]: > 100 µM
TGI [6]: > 100 µM

Nc1ccn(C2(CO)C=C(CO)C(O)C2O)c(=O)n1 (stereo not given)
TGI [1]: > 25.8 µM
TGI [2]: > 25.8 µM
TGI [3]: > 25.8 µM
TGI [4]: > 25.8 µM
TGI [5]: > 25.8 µM

Cc1cc(C2CC(O)C(CO)O2)cc2c(=O)[nH]c(N)nc12 (stereo not given)
GI50 [7]: > 100 µM
TGI [7]: > 100 µM
GI50 [2]: > 100 µM
TGI [2]: > 100 µM
GI50 [9]: > 100 µM
TGI [9]: > 100 µM
GI50 [10]: > 100 µM
TGI [10]: > 100 µM
GI50 [3]: > 100 µM
TGI [3]: > 100 µM
GI50 [4]: > 100 µM
TGI [4]: > 100 µM
GI50 [5]: > 100 µM
TGI [5]: > 100 µM
GI50 [8]: > 100 µM
TGI [8]: > 100 µM
GI50 [6]: > 100 µM
TGI [6]: > 100 µM

O=C1[C@H]2ON(c3ccccc3)C(c3ccc(Cl)cc3)[C@H]2C(=O)N1c1ccc(Cc2ccc(N3C(=O)[C@@H]4ON(c5ccccc5)C(c5ccc(Cl)cc5)[C@@H]4C3=O)cc2)cc1 (stereo not given in full)
TGI [1]: > 100 µM
TGI [7]: > 100 µM
TGI [2]: > 100 µM
TGI [3]: > 100 µM
TGI [4]: > 100 µM
TGI [5]: > 100 µM
TGI [8]: > 100 µM
TGI [6]: > 100 µM

Oc1cn(-c2ccc(Cl)cc2)nc1-c1n[nH]c(=S)n1C1CCCCC1
GI50 [7]: 30.5 µM
TGI [7]: > 100 µM
GI50 [2]: 0.31 µM
TGI [2]: > 100 µM
TGI [9]: > 100 µM
GI50 [10]: 6.62 µM
TGI [10]: > 100 µM
GI50 [3]: 2.03 µM
TGI [3]: > 48.8 µM
GI50 [4]: 0.248 µM
TGI [4]: 30.9 µM
GI50 [5]: 0.25 µM
TGI [5]: 12.3 µM
GI50 [8]: 3.05 µM
TGI [8]: > 100 µM
GI50 [6]: < 0.0447 µM
TGI [6]: 0.479 µM

Oc1cc(C2OCCCO2)cc(O)c1O
TGI [1]: > 100 µM
TGI [7]: > 100 µM
TGI [2]: > 100 µM
TGI [3]: > 100 µM
TGI [4]: > 100 µM
TGI [5]: > 100 µM
TGI [8]: > 100 µM
TGI [6]: > 100 µM

COc1cccc(-n2c3nc(=O)n(C)c(=O)c-3nc3ccccc32)c1
TGI [1]: 47.3 µM
TGI [7]: 40.8 µM
TGI [2]: 66.3 µM
TGI [3]: 52.2 µM
TGI [4]: > 100 µM
TGI [5]: 13.8 µM
TGI [8]: 37.2 µM
TGI [6]: 29.2 µM

Cc1cc(C)c(C2[C@H]3C(=O)N(c4ccc(Cc5ccc(N6C(=O)[C@@H]7ON(c8ccccc8)C(c8c(C)cc(C)cc8C)[C@@H]7C6=O)cc5)cc4)C(=O)[C@H]3ON2c2ccccc2)c(C)c1 (stereo not given in full)
TGI [1]: > 100 µM
TGI [7]: > 100 µM
TGI [2]: > 100 µM
TGI [3]: > 100 µM
TGI [4]: > 100 µM
TGI [5]: > 100 µM
TGI [8]: > 100 µM
TGI [6]: > 100 µM
